Measurements published in ChEMBL document CHEMBL3286127, “Aminoadamantanes with persistent in vitro efficacy against H1N1 (2009) influenza A” (J Med Chem, 2014).
pEC50: −log10 of the molar value. Calls of active or inactive are those of the source. The rule behind the calls is not given here.

Legend:
[1] = system: Influenza A virus; assay: Antiviral activity against Influenza A virus A2/Taiwan/1/64(H2N2) infected in MDCK cells expressing wild type M2 after overnight incubation by fluorescence-based miniplaque assay; type: functional, organism-based
[2] = system: Influenza A virus; assay: Antiviral activity against Influenza A virus A/Victoria/3/75(H3N2) infected in MDCK cells expressing wild type M2 after overnight incubation by fluorescence-based miniplaque assay; type: functional, organism-based
[3] = system: MDCK; assay: Cytotoxicity against MDCK cells at 50 uM after 18 hrs; type: cell-based, Canis lupus familiaris; details: dog
[4] = system: Influenza B virus; assay: Antiviral activity against Influenza B virus B/Russia/69 infected in MDCK cells at 50 uM; type: functional, organism-based
[5] = system: HEK293; type: cell-based; details: Influenza A virus (A/California/07/2009(H1N1)), 10 uM
[6] = system: Bovine parvovirus; assay: Antiviral activity against Bovine parvovirus infected in bovine embryonic cells at 50 uM; type: functional, cell-based
[7] = system: MDCK; assay: Cytotoxicity against MDCK cells at 5 uM after 18 hrs; type: cell-based, Canis lupus familiaris; details: dog

| Structure (SMILES) | pEC50 [1] | pEC50 [2] | Activity [3] | Activity [4] | Activity [5] [%] | Activity [6] | Activity [7] |
| --- | --- | --- | --- | --- | --- | --- | --- |
| NC12CC3CC(CC(C3)C1)C2 [AMANTADINE] | 6.47 | 5.56 | Non-toxic | – | – | – | – |
| CCCCC1(N)C2CC3CC(C2)CC1C3 (centres undefined) | 5.82 | 5.40 | Non-toxic | – | – | – | – |
| NC1(Cc2ccccc2)C2CC3CC(C2)CC1C3 (centres undefined) | 6.70 | 4.74 | Non-toxic | – | – | – | – |
| CCC1(N)C2CC3CC(C2)CC1C3 (centres undefined) | 6.10 | 5.70 | Non-toxic | inactive | – | – | – |
| CCCC1(N)C2CC3CC(C2)CC1C3 (centres undefined) | > 6.62 | 4.64 | Non-toxic | inactive | 63 | inactive | – |
| CC(C)CC1(N)C2CC3CC(C2)CC1C3 (centres undefined) | 6.40 | 4.89 | Non-toxic | – | – | – | – |
| CC1(N)C2CC3CC(C2)CC1C3 (centres undefined) | 6.30 | 5.70 | Non-toxic | inactive | – | – | – |
| NC1(c2ccccc2)C2CC3CC(C2)CC1C3 (centres undefined) | 6.70 | 5.10 | Non-toxic | – | – | – | – |
| CCCCCCC1(N)C2CC3CC(C2)CC1C3 (centres undefined) | 5.82 | 5.96 | – | – | – | – | Non-toxic |
| CC(N)C12CC3CC(CC(C3)C1)C2 (centres undefined) [RIMANTADINE] | 5.80 | 6.28 | Non-toxic | – | – | – | – |
| NC1C2CC3CC(C2)CC1C3 (centres undefined) | 6.10 | 5.48 | Non-toxic | inactive | – | – | – |
